{
  "source": "ChEMBL document CHEMBL4811248",
  "about": "“Discovery of imidazopyrrolopyridines derivatives as novel and selective inhibitors of JAK2” (Eur J Med Chem, 2021)",
  "key": {"[1]": {"assay": "Distribution coefficient between octanol and aqueous buffer, logD of the compound in pH 7.2 buffer"}, "[2]": {"assay": "Oral bioavailability in Lewis rat at 5 mg/kg measured up to 24 hrs by LC-MS/MS method", "format": "ADME, organism-based", "settings": "in vivo"}, "[3]": {"assay": "Clearance in Lewis rat at 1 mg/kg, iv measured up to 24 hrs by LC-MS/MS method", "format": "ADME, organism-based", "settings": "in vivo"}, "[4]": {"assay": "MRT in Lewis rat at 5 mg/kg, po measured up to 24 hrs by LC-MS/MS method", "format": "ADME, organism-based", "settings": "in vivo"}, "[5]": {"assay": "AUC in Lewis rat at 5 mg/kg, po measured up to 24 hrs by LC-MS/MS method", "format": "ADME, organism-based", "parameters": "route oral, dose 5 mg/kg, time <=24", "settings": "in vivo"}, "[6]": {"assay": "Aqueous solubility of compound by HPLC analysis", "format": "physicochemical", "settings": "buffer"}, "[7]": {"assay": "Clearance in Lewis rat at 5 mg/kg, po measured up to 24 hrs by LC-MS/MS method", "format": "ADME, organism-based", "settings": "in vivo"}, "[8]": {"assay": "AUC in Lewis rat at 1 mg/kg, iv measured up to 24 hrs by LC-MS/MS method", "format": "ADME, organism-based", "parameters": "route intravenous, dose 1 mg/kg, time <=24", "settings": "in vivo"}, "[9]": {"assay": "Volume of distribution at steady state in Lewis rat at 5 mg/kg, po measured up to 24 hrs by LC-MS/MS method", "format": "ADME, organism-based", "settings": "in vivo"}, "[10]": {"assay": "Half life in Lewis rat at 1 mg/kg, iv measured up to 24 hrs by LC-MS/MS method", "format": "ADME, organism-based", "settings": "in vivo"}, "[11]": {"assay": "Tmax in Lewis rat at 5 mg/kg, po measured up to 24 hrs by LC-MS/MS method", "format": "ADME, organism-based", "settings": "in vivo"}, "[12]": {"assay": "Cmax in Lewis rat at 5 mg/kg, po measured up to 24 hrs by LC-MS/MS method", "format": "ADME, organism-based", "parameters": "route oral, dose 5 mg/kg, time <=24", "settings": "in vivo"}, "[13]": {"assay": "MRT in Lewis rat at 1 mg/kg, iv measured up to 24 hrs by LC-MS/MS method", "format": "ADME, organism-based", "settings": "in vivo"}, "[14]": {"assay": "Metabolic stability in rat liver microsomes assessed as compound remaining at 1 uM measured up to 120 mins in presence of NADPH by HPLC-MS/MS analysis", "format": "ADME, Microsome", "settings": "read-out: Stabilty"}, "[15]": {"assay": "Volume of distribution at steady state in Lewis rat at 1 mg/kg, iv measured up to 24 hrs by LC-MS/MS method", "format": "ADME, organism-based", "settings": "in vivo, read-out: Vdss"}, "[16]": {"assay": "Half life in Lewis rat at 5 mg/kg, po measured up to 24 hrs by LC-MS/MS method", "format": "ADME, organism-based", "settings": "in vivo"}},
  "data": [
    {"smiles": "CCS(=O)(=O)N1CC(CC#N)(n2cc(-c3ncnc4[nH]ccc34)cn2)C1", "note": "[BARICITINIB]", "values": [
      {"measurement": "logD", "setting": "[1]", "value": 0.24},
      {"measurement": "bioavailability", "setting": "[2]", "value": 45.5, "unit": "%"},
      {"measurement": "clearance", "setting": "[3]", "value": 10.5, "unit": "mL/min/kg"},
      {"measurement": "MRT", "setting": "[4]", "value": 4.36, "unit": "h"},
      {"measurement": "AUC at 24 h", "setting": "[5]", "value": 3610, "unit": "ng·h/mL"},
      {"measurement": "solubility", "setting": "[6]", "value": 16.3, "unit": "µg/mL"},
      {"measurement": "clearance", "setting": "[7]", "value": 23.2, "unit": "mL/min/kg"},
      {"measurement": "AUC at 24 h", "setting": "[8]", "value": 1590, "unit": "ng·h/mL"},
      {"measurement": "Vdss", "setting": "[9]", "value": 4.88, "unit": "L/kg"},
      {"measurement": "half-life", "setting": "[10]", "value": 1.96, "unit": "h"},
      {"measurement": "Tmax", "setting": "[11]", "value": 1, "unit": "h"},
      {"measurement": "Cmax", "setting": "[12]", "value": 659, "unit": "ng/mL"},
      {"measurement": "MRT", "setting": "[13]", "value": 1.34, "unit": "h"},
      {"measurement": "remaining at 2 h, 1 µM", "setting": "[14]", "value": 96.1, "unit": "%"},
      {"measurement": "Vd", "setting": "[15]", "value": 1.8, "unit": "L/kg"},
      {"measurement": "half-life", "setting": "[16]", "value": 2.43, "unit": "h"}
    ]}
  ]
}
